Read-outs that look alike come from different tables or passages of the source. Where no end group is shown, it is not given here.
What was measured:
Parkinson's disease = details: person
Description: A person presents with current diagnosis of Parkinson's disease with motor complications and responsiveness to levodopa or dopa agonists. They are buccally administered 100 mg at every 12 hours for 180 days. At 1, 90, 180, 270 and 360 days they are tested/retested with a battery of neurological tests including Unified Parkinson's Disease Rating Scale (UPDRS), Time Tests, Hoehn and Yahr (HY) Scale, Clinical Global Impression of Severity (CGIS), Clinical Impression of Severity Index (CISI-PD), Patient Global Impression of Severity (PGIS).
A person presents with diagnosis of Parkinson's disease. They are administered peptide by intranasal spray at a dosage of 25 mg, daily for 60 days. At 1, 90, 180, 270 and 360 days they are tested/retested with a battery of neurological tests including Unified Parkinson's Disease Rating Scale (UPDRS), Time Tests, Hoehn and Yahr (HY) Scale, Clinical Global Impression of Severity (CGIS), Clinical Impression of Severity Index (CISI-PD), Patient Global Impression of Severity (PGIS).

Alzheimer's disease = details: person
[1] = system: striatum levels of DA, DOPAC, HVA, 5-HT, 5-HIAA, and NE; assay: Striatum neurochemistry (RP-HPLC EC) after repeated intranasal administration; format: in vivo, normal Fischer 344 rats; details: for Turnover ratio 5-HIAA/5-HT / Turnover ratio (HVA + DOPAC)/DA / Turnover ratio DOPAC/DA / Turnover ratio HVA/DA / 5-HT / 5 HIAA / DA / DOPAC / HVA / NE: 5 days a week for 3 weeks, combined left and right striatum, mean; for 5-HT / 5 HIAA / DA / DOPAC / HVA / NE: wet tissue weight
Description: (§1) Groups of 12, 3 month old Fischer 344 rats were intranasally dosed 50 microliters (4 single 12.5 microliter administrations, 2 per nare, 5 minutes between each nare administration) of either vehicle, 1.1 mg/mL, or 3.5 mg/mL of AV6403 [Leu-Ala-Pro-Ala-Glu-Asp-NH2] (SEQ ID NO: 1) once a day for 5 days a week, for 3 weeks (5 consecutive days of dosing, 2 off days, repeated total of 3 times). Following day 21, rats were euthanized and brain tissue was recovered and sections removed and weighed for neurochemical analysis by Reverse-Phase High Pressure Liquid Chromatography Electrochemical detection (RP-HPLC EC).
Dopamine [DA], its major metabolites 3,4-Dihydroxy-Phenylacetic Acid (DOPAC) and Homovanillic Acid (HVA), 5-hydroxytryptamine (5-HT, serotonin), its metabolite 5-hydroxyindoleacetic acid (5-HIAA), and norepinephrine (NE) were measured in the striatum and substantia nigra (SN) for each group. In the striatum [TABLE 1], 1.1 mg/mL dosing of AV6403 led to a 20% and 25% reduction of DA and HVA levels [FIG. 1A-FIG. 1C], respectively, resulting in an increase in dopamine turnover (22% [DOPAC/DA] and 16% [[(HVA+DOPAC)/DA]), relative to saline vehicle treated rats [FIG. 2A-FIG. 2B]. […] NE levels were reduced in the striatum with about a 36% reduction for AV6403 1.1 mg/mL dosage versus vehicle [TABLE 1].
(§2) Groups of 12, 3 month old Fischer 344 rats were intranasally dosed 50 microliters (4 single 12.5 microliter administrations, 2 per nare, 5 minutes between each nare administration) of either vehicle, 1.2 mg/mL, or 3.6 mg/mL of AV7624 [Glu-Ala-Pro-Phe-Glu-Asp-NH2] once a day for 5 days a week, for 3 weeks (5 consecutive days of dosing, 2 off days, repeated total of 3 times). Following day 21, rats were euthanized and brain tissue was recovered and sections removed and weighed for neurochemical analysis by RP-HPLC EC.
DA, DOPAC, HVA, 5-HT, 5-HIAA, and NE were measured in the striatum and SN for each group. In the striatum [TABLE 5], 3.6 mg/mL dosing of AV7624 led to an approximate 18%, 39%, and 30% reduction of DA, DOPAC, and HVA levels [FIG. 6A-FIG. 6C], respectively, resulting in an about 18% decrease in dopamine turnover ([DOPAC/DA] and [(HVA+DOPAC)/DA]), relative to saline vehicle treated rats [FIG. 7A-FIG. 7B]. […] NE levels were reduced in the striatum in a dose dependent manner, with about a 32% reduction for the AV7624 3.6 mg/mL dosage versus vehicle [TABLE 5]

[2] = system: substantia nigra levels of DA, DOPAC, HVA, 5-HT, 5-HIAA, and NE; assay: Substantia nigra neurochemistry (RP-HPLC EC) after repeated intranasal administration; format: in vivo, normal Fischer 344 rats; details: for Turnover ratio 5-HIAA/5-HT / Turnover ratio (HVA + DOPAC)/DA / Turnover ratio DOPAC/DA / Turnover ratio HVA/DA / 5-HIAA / 5-HT / DA / DOPAC / HVA / NE: 5 days a week for 3 weeks, combined left and right substantia nigra, mean; for 5-HIAA / 5-HT / DA / DOPAC / HVA / NE: wet tissue weight; for decrease of NE levels: versus vehicle treated rats
Description: as §1
In the SN [TABLE 3], treatment of AV6403 led to about a 13% increase in DOPAC and a 11% reduction of HVA, depending on the dosage, [FIG. 4A-FIG. 4C] resulting in an increase in dopamine turnover (20% [DOPAC/DA] for 3.5 mg/mL dosage; 23% [(HVA+DOPAC)/DA] for 1.1 mg/mL) relative to saline vehicle treated rats [FIG. 5A-FIG. 5B]. Treatment with 1.1 mg/mL AV6403 decreased 5-HT by 10% in the SN, resulting in a 16% increase in serotonin turnover [5-HIAA/5-HT] [TABLE 4]. The higher dosage (3.5 mg/mL AV6403) increased NE levels in the SN by about 23% versus vehicle treated rats, respectively [TABLE 3].
as §2
In the SN [TABLE 7], treatment with 3.6 mg/mL AV7624 led to about a 23%, 22%, and a 6% decrease in DA, DOPAC, and HVA [FIG. 9A-FIG. 9C], relative to saline vehicle treated rats, with minor effects on dopamine turnover [FIG. 10A-FIG. 10B]. Treatment with 3.6 mg/mL AV7624 decreased 5-HT by 20% and 5-HIAA by about 18% in the SN [TABLE 7], resulting in a minor effect on serotonin turnover [TABLE 8]. NE levels in the SN were decreased (17% and 13%) by both dosages (1.2 mg/mL and 3.6 mg/mL) versus vehicle treated rats, respectively [TABLE 7].

[3] = 3.6 mg/mL intranasal, striatum, relative to saline vehicle treated rats
[4] = 3.6 mg/mL repeated intranasal, striatum
[5] = 3.6 mg/mL intranasal, SN, relative to saline vehicle treated rats

## Glutamate-deuterated Lysine-Proline-D-Phenylalanine-deuterated Leucine-NH2 [SEQ ID NO: 8]
Parkinson's disease; intranasal spray 25 mg daily for 60 days
  additional UPDRS loss from day 1 over 360 days: minimal to no additional UPDRS loss

## D-Glutamate-Alanine-Proline-Phenylalanine-D-Alanine-Glycine-NH2 [SEQ ID NO: 7]
Alzheimer's disease; Alzheimer's Disease, buccal 25 mg daily for 60 days
  cognitive loss from day 1 over 360 days: minimal to no cognitive loss

## Cyclo (cys-Leucine-Glycine-Proline-Phenylalanine-Serine-Glutamate-cys [SEQ ID NO: 5]
Parkinson's disease; buccal 100 mg every 12 hours for 180 days
  additional test loss from day 1 over 360 days: minimal to no additional test loss

## Tryptophan-D-Alanine-Proline-D-Lysine-Asparagine-NH2 [SEQ ID NO: 6]
Alzheimer's disease; Alzheimer's disease, intranasal 100 mg once a week for 30 days
  cognitive loss from day 1 over 360 days: minimal to no cognitive loss

## Glu-Ala-Pro-Phe-Glu-Asp-NH2 (EAPFED-NH2) [AV7624]
[1]; 1.2 mg/mL intranasal
  Turnover ratio 5-HIAA/5-HT: 1.15
  Turnover ratio (HVA + DOPAC)/DA: 0.38
  Turnover ratio DOPAC/DA: 0.28
  Turnover ratio HVA/DA: 0.09
  5-HT: 610 ng/g
  5 HIAA: 674 ng/g
  DA: 13521 ng/g
  DOPAC: 3906 ng/g
  HVA: 1253 ng/g
  NE: 83 ng/g
[1]; 3.6 mg/mL intranasal
  Turnover ratio 5-HIAA/5-HT: 1.05
  Turnover ratio (HVA + DOPAC)/DA: 0.33
  Turnover ratio DOPAC/DA: 0.24
  Turnover ratio HVA/DA: 0.09
  5-HT: 487 ng/g
  5 HIAA: 499 ng/g
  DA: 10762 ng/g
  DOPAC: 2478 ng/g
  HVA: 915 ng/g
  NE: 67 ng/g
[1]; [3]
  decrease in dopamine turnover ([DOPAC/DA] and [(HVA+DOPAC)/DA]): about 18%
  reduction of DA levels: about 18%
  reduction of DOPAC levels: ~39%
  reduction of HVA levels: ~30%
[1]; 3.6 mg/mL intranasal, striatum, versus vehicle
  reduction of NE levels: ~32%
[1]; [4]
  effect on turnover [5-HIAA/5-HT]: small effect
  reduction of 5-HIAA levels: ~30%
  reduction of 5-HT levels: ~28%
[1]; lower dosage (1.2 mg/mL) intranasal, striatum
  effects on DA, 5-HT and their metabolites: less robust effects
[2]; 1.2 mg/mL intranasal
  Turnover ratio 5-HIAA/5-HT: 0.58
  Turnover ratio (HVA + DOPAC)/DA: 0.34
  Turnover ratio DOPAC/DA: 0.24
  Turnover ratio HVA/DA: 0.10
  5-HIAA: 886 ng/g
  5-HT: 1546 ng/g
  DA: 1918 ng/g
  DOPAC: 472 ng/g
  HVA: 184 ng/g
  NE: 727 ng/g
[2]; 1.2 mg/mL intranasal, SN
  decrease of NE levels: 17%
[2]; 3.6 mg/mL intranasal
  Turnover ratio 5-HIAA/5-HT: 0.57
  Turnover ratio (HVA + DOPAC)/DA: 0.35
  Turnover ratio DOPAC/DA: 0.22
  Turnover ratio HVA/DA: 0.13
  5-HIAA: 737 ng/g
  5-HT: 1251 ng/g
  DA: 1523 ng/g
  DOPAC: 376 ng/g
  HVA: 177 ng/g
  NE: 767 ng/g
[2]; 3.6 mg/mL intranasal, SN
  decrease of 5-HIAA: about 18%
  decrease of 5-HT: 20%
  effect on serotonin turnover: minor effect
  effects on dopamine turnover: minor effects
  decrease of NE levels: 13%
[2]; [5]
  decrease in DA: ~23%
  decrease in DOPAC: ~22%
  decrease in HVA: ~6%

## Leucine-Glycine-Proline-Phenylalanine-Serine-Glutamate
Alzheimer's disease; mild cognitive impairment Alzheimer's disease, intranasal 5 mg once per day for 360 days
  cognitive loss from day 1 over 360 days: minimal to no cognitive loss
